Experimental data taken from patent US6544987B2, “Compounds, compositions, and methods for stimulating neuronal growth and elongation” (Pfizer Inc., priority 1999, dated 2003).
Values joined by “and” are separate entries in the source; they are usually repeats but may differ in a detail not shown here. Equal entries are not always repeated.

Columns and labels:
FKBP12 [1] = target: T1, FKBP12 (Homo sapiens, UniProt P62942); assay: Rotamase inhibition assay (N-succinyl-Ala-Ala-Pro-Phe-p-nitroanilide, chymotrypsin-coupled); type: biochemical; settings: Table 1; read-out: Rotamase Ki(app)
T1 sequence (P62942 whole entry, species assumed): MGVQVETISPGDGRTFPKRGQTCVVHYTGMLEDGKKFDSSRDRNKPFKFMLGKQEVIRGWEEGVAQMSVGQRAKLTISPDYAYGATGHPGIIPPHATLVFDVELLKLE
Procedure: In the rotamase inhibition assay, isomerization of an artificial substrate N-succinyl-Ala-Ala-Pro-Phe-p-nitroanilide is followed spectrophotometrically. The assay includes the cis form of the substrate, FKBP12, the compound being tested, and chymotrypsin. Chymotrypsin is able to cleave p-nitroaniline from the trans form of the substrate, but not from the cis form. Release of p-nitroaniline is measured spectrophotometrically. Using this assay, various amounts of the FKBP rotamase-inhibiting compounds of formula (I) were added to cis-N-succinyl-alanine-alanine-proline-phenylalanine-para-nitroaniline (BACHEM, 3132 Kashiwa Street, Torrance, Calif. 90505) in the presence of FKBP12 and chymotrypsin. Spectrophotometric measurements of p-nitroaniline concentrations allowed estimation of the apparent Ki values, which are provided in Table 1 below.

FKBP12 [2] = target: T1, FKBP12; assay: Affinity for FKBP-12 (Ki), succinyl-Ala-Leu-Pro-Phe-pNA chymotrypsin-coupled assay; type: biochemical; parameters: key to FKBP12 inhibition (in Kiapps column): NI: no inhibition; NSI: no significant inhibition; settings: for Ki: Table 2, read-out: FKBP12 Kiapps
Procedure: In a quartz cuvette, a final 1 mL buffer concentration was reached (50 mM Hepes, 100 mM NaCl, pH 8.0). Within this final reaction volume, 3.5 μL […] FKBP-12 (in 50 mM Hepes, 100 mM NaCl, pH 8.0) and 10 μL test compound in DMSO were added. The reaction was initiated by adding 10 μL chymotrypsin (100 mg/mL in 1 mM HCl) followed by 5 μL (1-20 mM succinyl-Ala-Leu-Pro-Phe-pNA in 240 mM LiCl/TFE).
The absorbance at 390 nm versus time was monitored for up to 400 seconds. Rate constants were determined from the absorbance versus time plots generated.

[3] = tested on: PC12 rat pheochromocytoma cells; assay: Neurite outgrowth activity in PC12 rat pheochromocytoma assay; type: cell-based; settings: PC-12 cells; active concentration range
Procedure: For example, compounds may be tested to determine their neurotrophic activity using the method described by Lyons et al., Proc. Natl. Acad. Sci., 91:3191-3195 (1994). In this rat pheochromocytoma assay for neurite outgrowth, PC12 rat pheochromocytoma cells are maintained at 37° C. and 5% CO2 in Dulbecco's modified Eagle's medium (DMEM) supplemented with 10% heat-inactivated horse serum and 5% heat-inactivated fetal bovine serum. Cells are then plated, coated at 10^5 per 35 mm culture well with rat tail collagen at […], and allowed to attach. Medium is then replaced with DMEM supplemented with 2% horse serum, 1% fetal bovine serum, nerve growth factor (NGF), and/or varying concentrations of test compounds. The control cultures are administered NGF without any of the test compounds.

FKBP12 [4] = target: T1, FKBP12; assay: Binding to FKBP by microcalorimetry
Procedure: Binding of compounds to FKBP may be measured directly using microcalorimetry. Calorimetric titrations are carried out using the MCS-ITC instrument (MicroCal Inc., Northhampton, Mass.). The titrations may be conducted as follows. Protein dialysate is degassed for 15 minutes using MicroCal equipment. Stock inhibitor solution is added to co-solvent (typically DMSO) and degassed dialysate, followed by brief sonication, to produce the final inhibitor solutions to be used in the titrations. Final inhibitor solutions are in the concentration range 10 to 80 μM. Dialyzed protein is added to co-solvent and degassed dialysate to produce FKBP12 solutions in the concentration range 200 to 1600 μM. As both solutions are prepared using degassed dialysate, no additional degassing of the solutions is performed. Co-solvent is added to the protein solutions to maintain a fixed co-solvent concentration throughout the course of the titration. Protein is titrated into inhibitor using a 125-μL injection syringe. The titrations are conducted with the ligand in the cell due to low solubility of inhibitors. Typically, a preliminary 2-μL injection is followed by fifteen 8-μL injections made at varying injection intervals. A full set of dilution controls is conducted for each titration. An appropriate volume of co-solvent is added to degassed dialysate to produce the buffered co-solvent solution used to obtain heats of dilution of the reactants. After correcting for the heats of dilution and deletion of the preliminary injection, the titration results are fitted using the “One Set of Sites Model” in the ORIGIN software package supplied with the instrument.

[5] = Solubility noted in FKBP12 assay table; type: physicochemical; settings: read-out: Sol (solubility)

CCC(C)(C)NS(=O)(=O)N1CCCC[C@H]1C(=O)OC(CCCc1ccccc1)CCCc1ccccc1 [Compound 23, 1-(1,1-Dimethyl-propylsulfamoyl)-piperidine-2S-carboxylic acid 4-phenyl-1-(3-phenyl-propyl)-butyl ester]
Ki (FKBP12 [1]): 6990 nM

O=C(OCCCCc1ccccc1)[C@@H]1CCCCN1S(=O)(=O)Nc1ccccc1 [Compound 24, 1-Phenylsulfamoyl-piperidine-2S-carboxylic acid 4-phenyl-butyl ester]
Ki (FKBP12 [1]): 1160 nM | Ki (FKBP12 [2]): 1160 nM and 508 nM

COc1cc(NS(=O)(=O)N2CCCC[C@H]2C(=O)OCCCCc2ccccc2)cc(OC)c1OC [Compound 25, 1-(3,4,5-Trimethoxy-phenylsulfamoyl)-piperidine-2S-carboxylic acid 4-phenyl-butyl ester]
Ki (FKBP12 [1]): 200 nM | Neurite-Outgrowth Activity (PC-12) [3]: 0.001 to 1 µM | Ki (FKBP12 [2]): 200 nM and 180 nM | Kd (FKBP12 [4]): 1200 nM

CCC(C)(C)NS(=O)(=O)N1CCCC[C@H]1C(=O)OCCCCc1ccccc1 [Compound 26, 1-(1,1-Dimethyl-propylsulfamoyl)-piperidine-2S-carboxylic acid 4-phenyl-butyl ester]
Ki (FKBP12 [1]): 193 nM | Ki (FKBP12 [2]): 193 nM and 218 nM

CCC(C)(C)NS(=O)(=O)N1CCC[C@H]1C(=O)OCCCc1cccnc1 [Compound 31, 1-(1,1-Dimethyl-propylsulfamoyl)-pyrrolidine-2S-carboxylic acid 3-pyridin-3-yl-propyl ester]
Ki (FKBP12 [1]): 2790 nM | Neurite-Outgrowth Activity (PC-12) [3]: 0.001 to 1 µM | Ki (FKBP12 [2]): 2790 nM and 1100 nM | Kd (FKBP12 [4]): 4500 nM

O=C(OCCCc1cccnc1)[C@@H]1CCCN1S(=O)(=O)Nc1ccccc1 [Compound 33, 1-Phenylsulfamoyl-pyrrolidine-2S-carboxylic acid 3-pyridin-3-yl-propyl ester]
Neurite-Outgrowth Activity (PC-12) [3]: 0.001 to 1 µM | Ki (FKBP12 [2]): 3960 nM | Kd (FKBP12 [4]): 14000 nM

COc1cc(NS(=O)(=O)N2[C@@H]3CC[C@@H](C3)[C@H]2C(=O)OCCCCc2ccccc2)cc(OC)c1OC [Compound 84, 2-(3,4,5-Trimethoxy-phenylsulfamoyl)-2-aza-bicyclo[2.2.1]heptane-exo-3-carboxylic acid 4-phenyl-butyl ester]
solubility [5]: < 30 µM | FKBP12 inhibition (in Kiapps column) (FKBP12 [2]; at 1 μM): NI
